Assays:
[1] = system: OVCAR3 p-RB; assay: pRB ICW assay in OVCAR3 cells; type: cell-based; conditions: Homo sapiens, OVCAR-3, incubated with compound for 2 hours
In short: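 OVCAR3 cells were treated 2 h at 37 °C with a 9-point half-log compound series, in duplicate, with 10 μM reference compound as maximum inhibition. Cells were then fixed, permeabilized and stained with anti-phospho-RB plus DRAQ5. In-cell western intensities were read at 700/800 nm on Odyssey CLx.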

[2] = target: CDK2/Cyclin E2 (Homo sapiens, UniProt P24941); assay: CDK2/CyclinE2 enzymatic activity assay (TR-FRET); type: biochemical; conditions: ATP 1 mM final, read-out: CDK2_E1 IC50
In short: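 Insect-cell-expressed CDK2/Cyclin E2 (1 nM), ULight-4E-BP1 (50 nM) and ATP (1 mM) in HEPES pH 7.4 buffer were preincubated 20 min at RT with compound (9-dose, 3-fold), started with 10 mM MgCl2 and run 45 min at 37 °C. EDTA/Eu-anti-P-4E-BP1 stop, 60 min TR-FRET detection; IC50 from 4-parameter Hill fit.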

[3] = target: T1, CDK4/Cyclin D1 (Homo sapiens, UniProt P11802); assay: CDK4/CyclinD1 enzymatic activity assay (TR-FRET); type: biochemical; conditions: ATP 2 mM final, read-out: CDK4_D1 IC50
T1 construct: purchased ProQinase; host or cells: insect cell
T1 sequence (P11802 whole entry): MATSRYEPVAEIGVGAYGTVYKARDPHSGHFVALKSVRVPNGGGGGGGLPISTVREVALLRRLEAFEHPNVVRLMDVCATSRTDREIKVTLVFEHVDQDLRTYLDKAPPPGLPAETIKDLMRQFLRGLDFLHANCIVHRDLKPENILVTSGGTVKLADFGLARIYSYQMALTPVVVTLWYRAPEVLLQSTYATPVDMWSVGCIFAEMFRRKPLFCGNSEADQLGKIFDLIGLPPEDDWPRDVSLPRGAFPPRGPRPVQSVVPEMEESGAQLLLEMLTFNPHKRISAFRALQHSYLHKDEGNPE
T1 sequence (P24385 whole entry partner): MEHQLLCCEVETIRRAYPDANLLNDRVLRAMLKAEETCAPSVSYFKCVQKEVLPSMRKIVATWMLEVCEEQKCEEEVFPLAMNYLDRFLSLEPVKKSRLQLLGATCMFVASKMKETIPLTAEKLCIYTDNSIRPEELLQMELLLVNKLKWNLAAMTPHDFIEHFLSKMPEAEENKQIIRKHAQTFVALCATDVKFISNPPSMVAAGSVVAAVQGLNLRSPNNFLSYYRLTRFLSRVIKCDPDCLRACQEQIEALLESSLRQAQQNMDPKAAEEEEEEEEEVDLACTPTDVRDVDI
In short: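 Insect-cell-expressed CDK4/Cyclin D1 (1 nM) phosphorylated ULight-4E-BP1 peptide (100 nM) at 2 mM ATP in HEPES pH 7.4 buffer after 20 min compound preincubation. Reaction started with 10 mM MgCl2, ran 45 min at 37 °C, then EDTA quench and Eu-anti-phospho-4E-BP1 TR-FRET detection. IC50 from 9-point 3-fold dilutions, 4-parameter fit.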

IC50 [1] [nM] | IC50 [2] [nM] | IC50 [3] [nM] | Compound
≤ 100 | ≤ 100 | ≤ 100 | Cn1cnc(S(=O)(=O)N2CCC(Nc3ncc(C(F)(F)F)c(-c4cnc(CC(C)(C)O)s4)n3)CC2)c1 [Example 70, 2-methyl-1-(5-(2-((1-((1-methyl-1H-imidazol-4-yl)sulfonyl)piperidin-4-yl)amino)-5-(trifluoromethyl)pyrimidin-4-yl)thiazol-2-yl)propan-2-ol]
> 1000 | ≤ 100 | 100 to 1000 | CS(=O)(=O)N1CCC(Nc2ncc(C(F)(F)F)c(-c3cnc(C(F)F)s3)n2)CC1 [Example 42, 4-[2-(Difluoromethyl)-1,3-thiazol-5-yl]-N-(1-methylsulfonylpiperidin-4-yl)-5-(trifluoromethyl)pyrimidin-2-amine]
100 to 1000 | ≤ 100 | ≤ 100 | CC(C)N(C)c1ncc(-c2nc(NC3CCN(S(C)(=O)=O)CC3)ncc2C(F)(F)F)s1 [Example 22, N-isopropyl-N-methyl-5-(2-((1-(methylsulfonyl)piperidin-4-yl)amino)-5-(trifluoromethyl)pyrimidin-4-yl)thiazol-2-amine]
> 1000 | ≤ 100 | 100 to 1000 | Cc1cc(CO)ccc1-c1nc(C)c(-c2nc(NC3CCN(S(C)(=O)=O)CC3)ncc2F)s1 [Example 15, [4-[5-[5-fluoro-2-[(1-methylsulfonylpiperidin-4-yl)amino]pyrimidin-4-yl]-4-methyl-1,3-thiazol-2-yl]-3-methylphenyl]methanol]
> 1000 | ≤ 100 | ≤ 100 | CS(=O)(=O)N1CCC(Nc2ncc(C(F)(F)F)c(-c3cnc(OC4CCCC4)s3)n2)CC1 [Example 27, 4-(2-(cyclopentyloxy)thiazol-5-yl)-N-(1-(methylsulfonyl)piperidin-4-yl)-5-(trifluoromethyl)pyrimidin-2-amine]
> 1000 | ≤ 100 | 100 to 1000 | CS(=O)(=O)N1CCC(Nc2ncc(C(F)(F)F)c(-c3cnc(CN)s3)n2)CC1 [Example 64, 4-[2-(Aminomethyl)-1,3-thiazol-5-yl]-N-(1-methylsulfonylpiperidin-4-yl)-5-(trifluoromethyl)pyrimidin-2-amine]
≤ 100 | ≤ 100 | ≤ 100 | Cn1cnc(S(=O)(=O)N2CCC(Nc3ncc(C(F)(F)F)c(-c4cnc(C(O)C(F)F)s4)n3)CC2)c1 (stereo not drawn) [Example 91, 2,2-difluoro-1-(5-(2-((1-((1-methyl-1H-imidazol-4-yl)sulfonyl)piperidin-4-yl)amino)-5-(trifluoromethyl)pyrimidin-4-yl)thiazol-2-yl)ethan-1-ol]
> 1000 | ≤ 100 | 100 to 1000 | Cc1cc(C(C)(C)O)ccc1-c1ncc(-c2nc(NC3CCN(S(C)(=O)=O)CC3)ncc2C(F)(F)F)s1 [Example 8, 2-[3-Methyl-4-[5-[2-[(1-methylsulfonylpiperidin-4-yl)amino]-5-(trifluoromethyl)pyrimidin-4-yl]-1,3-thiazol-2-yl]phenyl]propan-2-ol]
≤ 100 | ≤ 100 | ≤ 100 | Cn1cc(S(=O)(=O)N2CCC(Nc3ncc(C(F)(F)F)c(-c4cnc(C(O)C(F)F)s4)n3)CC2)cn1 (stereo not drawn) [Example 92, 2,2-difluoro-1-(5-(2-((1-((1-methyl-1H-pyrazol-4-yl)sulfonyl)piperidin-4-yl)amino)-5-(trifluoromethyl)pyrimidin-4-yl)thiazol-2-yl)ethan-1-ol]
> 1000 | ≤ 100 | 100 to 1000 | COC(=O)N(C)Cc1ccc(-c2ncc(-c3nc(NC4CCN(S(C)(=O)=O)CC4)ncc3C(F)(F)F)s2)c(C)c1 [Example 14, methyl N-methyl-N-[[3-methyl-4-[5-[2-[(1-methylsulfonylpiperidin-4-yl)amino]-5-(trifluoromethyl)pyrimidin-4-yl]-1,3-thiazol-2-yl]phenyl]methyl]carbamate]
100 to 1000 | ≤ 100 | ≤ 100 | CC(O)c1ncc(-c2nc(NC3CCN(S(C)(=O)=O)CC3)ncc2C(F)(F)F)s1 (stereo not drawn) [Example 81, 1-(5-(2-((1-(methylsulfonyl)piperidin-4-yl)amino)-5-(trifluoromethyl)pyrimidin-4-yl)thiazol-2-yl)ethan-1-ol]
> 1000 | ≤ 100 | 100 to 1000 | Cc1ccc(-c2ncc(-c3nc(NC4CCN(S(C)(=O)=O)CC4)ncc3C(F)(F)F)s2)c(C)c1 [Example 11, 4-[2-(2,4-dimethylphenyl)-1,3-thiazol-5-yl]-N-(1-methylsulfonyl-piperidin-4-yl)-5-(trifluoromethyl)pyrimidin-2-amine]
≤ 100 | ≤ 100 | ≤ 100 | CC(O)C(C)Nc1ncc(-c2nc(NC3CCN(S(C)(=O)=O)CC3)ncc2C(F)(F)F)s1 (stereo not drawn) [Example 30, 3-[[5-[2-[(1-methylsulfonylpiperidin-4-yl)amino]-5-(trifluoromethyl)pyrimidin-4-yl]-1,3-thiazol-2-yl]amino]butan-2-ol]
≤ 100 | ≤ 100 | ≤ 100 | CC(O)c1ncc(-c2nc(NC3CCN(S(=O)(=O)c4cnn(C)c4)CC3)ncc2C(F)(F)F)s1 (stereo not drawn) [Example 82, 1-(5-(2-((1-((1-methyl-1H-pyrazol-4-yl)sulfonyl)piperidin-4-yl)amino)-5-(trifluoromethyl)pyrimidin-4-yl)thiazol-2-yl)ethan-1-ol]
100 to 1000 | ≤ 100 | ≤ 100 | CS(=O)(=O)N1CCC(Nc2ncc(C(F)(F)F)c(-c3cnc(C4CCOCC4)s3)n2)CC1 [Example 3, N-(1-methylsulfonylpiperidin-4-yl)-4-[2-(oxan-4-yl)-1,3-thiazol-5-yl]-5-(trifluoromethyl)pyrimidin-2-amine]
100 to 1000 | ≤ 100 | ≤ 100 | CS(=O)(=O)N1CCC(Nc2ncc(C(F)(F)F)c(-c3cnc(NCCF)s3)n2)CC1 [Example 40, N-(2-Fluoroethyl)-5-[2-[(1-methylsulfonylpiperidin-4-yl)amino]-5-(trifluoromethyl)pyrimidin-4-yl]-1,3-thiazol-2-amine]
100 to 1000 | ≤ 100 | ≤ 100 | CC(C)(O)Cc1ncc(-c2nc(NC3CCN(S(=O)(=O)CCCN4CCOCC4)CC3)ncc2C(F)(F)F)s1 [Example 79, 2-methyl-1-(5-(2-((1-((3-morpholinopropyl)sulfonyl)piperidin-4-yl)amino)-5-(trifluoromethyl)pyrimidin-4-yl)thiazol-2-yl)propan-2-ol]
100 to 1000 | 100 to 1000 | 100 to 1000 | Cc1nn(CCO)cc1-c1ncc(-c2nc(NC3CCN(S(C)(=O)=O)CC3)ncc2C(F)(F)F)s1 [Example 17, 2-[3-methyl-4-[5-[2-[(1-methylsulfonylpiperidin-4-yl)amino]-5-(trifluoromethyl)pyrimidin-4-yl]-1,3-thiazol-2-yl]pyrazol-1-yl]ethanol]
≤ 100 | ≤ 100 | ≤ 100 | Cn1cc(S(=O)(=O)N2CCC(Nc3ncc(C(F)(F)F)c(-c4cnc(CC(C)(C)O)s4)n3)CC2)cn1 [Example 67, 2-Methyl-1-(5-(2-((1-((1-methyl-1H-pyrazol-4-yl)sulfonyl)piperidin-4-yl)amino)-5-(trifluoromethyl)pyrimidin-4-yl)thiazol-2-yl)propan-2-ol]

Reference: patent US20240018136A1, “CDK Inhibitors And Their Use As Pharmaceuticals” (Prelude Therapeutics, Incorporated, priority 2022, published 2024)
